Test results reported in patent US7253296B2, “Acylated aminopropanediols and analogues and therapeutic uses thereof” (Genfit, priority 2003, dated 2007).

Columns and labels:
LDL = assay: Protection against LDL oxidation induced by copper (conjugated diene formation, OD 234 nm); assay type: biochemical; settings: for intrinsic antioxidant properties (delay of copper-induced LDL oxidation): FIG. 2; for shift of the lag phase latency (conjugated diene formation): relative to control sample, FIG. 2a
Description: Oxidation of LDL is an important modification which plays a major role in the onset and development of atherosclerosis (Jurgens, Hoff et al. 1987). […] Unless otherwise indicated, all reagents were from Sigma (St Quentin, France).
LDL were prepared as described in Lebeau et al. (Lebeau, Furman et al. 2000). The solutions of the test compounds were prepared at 10^−2 M in ethanol and diluted in PBS so that the final concentration ranged from 0.1 to 100 μM with a total ethanol concentration of 1% (VN).
Before oxidation, EDTA was removed from the LDL preparation by dialysis. The oxidation reaction was then carried out at 30° C. by adding 100 μl of 16.6 μM CuSO4 to 800 μl of LDL (125 μg protein/ml) and 100 μl of a test compound solution. The formation of dienes, the species to be followed, was measured by the optical density at 234 nm in the samples treated with the compounds in the presence or absence of copper. Optical density at 234 nm was measured every 10 minutes for 8 hours on a thermostated spectrophotometer (Kontron Uvikon 930). The analyses were carried out in triplicate. A compound was considered to have antioxidant activity when it shifted the lag phase latency relative to the control sample. […] FIG. 2 presents an example of the results obtained with the inventive compounds.

Gal4/hPPARα = biological target: T1, Gal4/hPPARα (Homo sapiens, UniProt Q07869); assay: Gal4/PPARα transactivation system in HepG2 cells (luciferase reporter); settings: for induction factor (luminescent signal of treated cells divided by that of untreated cells): HepG2 cells, Gal4/PPARα, 24 h, FIG. 3
T1 sequence (Q07869 239-466 limits assumed): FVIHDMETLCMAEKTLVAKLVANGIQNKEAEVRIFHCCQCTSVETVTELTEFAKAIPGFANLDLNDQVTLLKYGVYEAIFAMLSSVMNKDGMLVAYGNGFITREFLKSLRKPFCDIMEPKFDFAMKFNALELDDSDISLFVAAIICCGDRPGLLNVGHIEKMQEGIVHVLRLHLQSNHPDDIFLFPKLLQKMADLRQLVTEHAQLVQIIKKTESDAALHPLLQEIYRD
Description: PPAR activation was tested in vitro in RK13 fibroblast cell lines or in a hematocyte line HepG2 by measuring the transcriptional activity of chimeras composed of the DNA binding domain of the yeast gal4 transcription factor and the ligand binding domain of the different PPARs.
HepG2 cells were from ECACC (Porton Down, UK) and were grown in DMEM medium supplemented with 10% (VN) fetal calf serum, 100 U/ml penicillin (Gibco, Paisley, UK) and 2 mM L-glutamine (Gibco, Paisley, UK). The culture medium was changed every two days. Cells were kept at 37° C. in a humidified 95% air/5% CO2 atmosphere.
The plasmids pG5TkpGL3, pRL-CMV, pGal4-hPPAR□, pGal4-hPPAR□ and pGal4-f have been described by Raspe et al. (Raspe, Madsen et al. 1999).
HepG2 cells were seeded in 24-well culture dishes at 5×10^4 cells/well and transfected for 2 hours with the reporter plasmid pG5TkpGL3 (50 ng/well), the expression vectors pGal4-f, pGal4-mPPARα, pGal4-hPPARα, pGal4-hPPARγ, pGal4-hPPARβ (100 ng/well) and the transfection efficiency control vector pRL-CMV (1 ng/well) according to the previously described protocol (Raspe, Madsen et al. 1999), then incubated for 36 hours with the test compounds. At the end of the experiment, the cells were lysed (Gibco, Paisley, UK) and luciferase activity was determined with a Dual-Luciferase™ Reporter Assay System kit (Promega, Madison, Wis., USA) according to the supplier's instructions. The protein content of the cell extracts was then measured with the Bio-Rad Protein Assay kit (Bio-Rad, Munich, Germany) as directed by the supplier.
The results are expressed as the induction factor (luminescent signal of treated cells divided by luminescent signal of untreated cells) after the different treatments.

| Compound | intrinsic antioxidant properties (delay of copper-induced LDL oxidation) (LDL) | shift of the lag phase latency (conjugated diene formation) (LDL) | melting point | induction factor (luminescent signal of treated cells divided by that of untreated cells) (Gal4/hPPARα; 5 μM) | induction factor (luminescent signal of treated cells divided by that of untreated cells) (Gal4/hPPARα; 15 μM) [fold] | induction factor (luminescent signal of treated cells divided by that of untreated cells) (Gal4/hPPARα; 50 μM) [fold] | induction factor (luminescent signal of treated cells divided by that of untreated cells) (Gal4/hPPARα; 100 μM) [fold] | PPARα activation (luciferase activity / luminescent signal), in words (Gal4/hPPARα; cells transfected with pGal4-hPPARα plasmid) |
| --- | --- | --- | --- | --- | --- | --- | --- | --- |
| 1,2-(dipalmitoyloxy)-3-tetradecylthioacetylaminopropane [Ex 4] | exhibit intrinsic antioxidant properties | 34.3% |  |  |  |  |  |  |
| CCCCCCCCCCCCCCSCC(=O)NCC(CNC(=O)CSCCCCCCCCCCCCCC)OC(=O)CSCCCCCCCCCCCCCC [Ex 11, 1,3-ditetradecylthioacetylamino-2-(tetradecylthioacetyloxy)propane] | exhibit intrinsic antioxidant properties |  |  |  |  |  |  |  |
| CCCCCCCCCCCCCCCC(=O)NCC(O)CO (stereo not shown) [Ex 3, 3-(palmitoylamino)propane-1,2-diol] |  |  | 104 to 108 °C |  |  |  |  |  |
| CCCCCCCCCCCCCCSCC(=O)NCC(O)CO (stereo not shown) [Ex 2, 3-(tetradecylthioacetylamino)propane-1,2-diol] | exhibit intrinsic antioxidant properties | more than 13% |  | 1.5 fold | 7.7 | 19.8 | 19.2 |  |
| 1,2-(ditetradecylthioacetyloxy)-3-palmitoylaminopropane [Ex 6] | exhibit intrinsic antioxidant properties |  |  | 1.1 fold | 2.2 | 9.6 | 14.5 | induced an increase in the luminescent signal |
| CCCCCCCCCCCCCCCC(=S)OC(CN)CN.Cl.Cl |  |  | 224 °C (dec.) |  |  |  |  |  |
| 1,2-(ditetradecylthioacetyloxy)-3-tetradecylthioacetylaminopropane [Ex 5] | exhibit intrinsic antioxidant properties |  |  | 1,2 fold | 2.5 | 7 | 10.5 |  |
